From patent US20220175798A1, “COMPOSITIONS COMPRISING OXYGENATED CHOLESTEROL SULFATE AND AT LEAST ONE OF POLYALKYLENE GLYCOL, CARBOXYMETHYL CELLULOSE AND POLYOXYLGLYCERIDE” (Durect Corporation, priority 2016, published 2022)

How the values were obtained:
[1] = test system: non-alcoholic steatohepatitis (NASH); assay: Accelerated mouse model of NASH (STZ + HFD), Part I; type: in vivo, C57BL/6J mice; conditions: vs vehicle
Experimental: The subjects for the study were 30 C57BL/6J male mice. Mice were given a 200 ug streptozotocin (STZ) at 2 days after birth and fed high fat diet (HFD) starting at four weeks of age until the remainder of the study (9 weeks of age). This intervention early in their lives induces accelerated progression of non-alcoholic steatohepatitis (NASH) and has been highly characterized.
The Vehicle was a solution of 0.5% (w/v) CMC and 0.05% (v/v) Tween-80 in water. Powdered 25HC3 S was constituted into the vehicle solution to result in drug concentrations of 5 and 10 mg/mL. The suspensions were homogenized for approximately 5 minutes being combined, with 10 second breaks every 30-40 seconds and swirled before dosing to maintain homogeneity. The formulated test article was prepared weekly and kept at room temperature.
Mice were divided into treatment groups (N=10/group) and dosed daily by oral gavage with vehicle, 10 mg/kg or 50 mg/kg 25HC3S starting from Week 5 to Week 9 (28 days treatment).

[2] = Single SC injection PK study in Beagle dogs; type: in vivo; conditions: single SC dose 25 mg/kg
Experimental: The subjects for the study were 5 male Beagle dogs (4-7 years of age; 8-11 kg). […] All animals were in healthy condition and admitted to the study.
The Vehicle was a solution of 3% (w/v) polyethylene glycol 3350, 0.3% (w/v) polysorbate 80, 0.7% (v/v) sodium chloride, 0.15% (w/v) L-methionine, 10 mM sodium phosphate buffer at pH 7.4 in water. 25HC3 S was mixed into the Vehicle solution to result in a drug concentration of 25 mg/mL. […] The formulated test article was used within 24 hours of constitution.
Each dog received a single subcutaneous injection. The dose level of 25 mg/kg was administered in a dose volume of 1 mL/kg. Whole blood samples were collected via the jugular vein at pre-dose, 0.5, 1, 2, 4, 8, 12, 24, and 32 hours (h) post dose. Blood samples were placed into tubes containing K2EDTA. The blood was gently mixed to assure distribution of the anti-coagulant and the resulting plasma samples underwent analyses to quantify 25HC3S levels. […] Assessments included, but were not limited to, evidence of pain on injection, assessment of activity, posture, respiration, emesis, seizure, hydration status, injection site assessment.

[3] = Syringeability study of 25HC3S suspensions; type: physicochemical
Experimental: Two lots of 25HC3S sodium salt (Lot #A and Lot #B) were used. Lot #B was delumped through a 20 mesh screen. The drug substance was either used directly or further jet-milled, prior to the preparation of suspensions for the studies. A third lot of 25HC3 S sodium salt (Lot #C) was jet-milled first and then used directly or further passed through a 20 mesh screen prior to the studies. More than 10 vehicles were screened. Four mixing methods were evaluated: manual shaking (Mixing Method 1), manual shaking followed by sonication (Mixing Method 2) and homogenization with a sonic probe (Mixing Method 3) as well as mechanical shaking horizontally in a flat bed shaker (Mixing Method 4). Studies #1 to 13 combined vehicle screening, mixing methods and syringeability evaluation. The effect of drug concentrations on the syringeability was evaluated (Studies #10 and 11). Syringe: 1 mL BD syringe (luer lok tip), reference no: 309628 Needles for syringeability study: listed below Weigh approximately 10 to 100 mg each of 25HC3S into 2 mL vials. Add to each vial, 1 mL of vehicle. A total of 3 mixing methods were used to prepare the suspensions. Mixing Method 1: Each vial was manually shaken for 15 to 45 times. […] The effect of 25HC3S with or without jet milling and the effects of mixing methods as well as drug concentrations on the syringeability were evaluated. […]

[4] = Osmolality by vapor pressure osmometer; type: physicochemical
Experimental: Vapor Pressure Osmometer: Vapor® Vapor Pressure Osmometer, Model
Vehicle PEG 3350 (3% PEG 3350 plus 0.3% Tween 80 in 10 mM Phosphate at pH 7.4) with 0.71%, 0.77% and 0.80% NaCl were prepared and the osmolality was measured with a vapor pressure osmometer.
Weigh 87 mg of 25HC3S (Lot #C, Jet milled and then pass 20 mesh screen) into a 5-mL vial. Add to the vial 3 mL Vehicle PEG 3350 (without L-methionine and with 0.75% NaCl). […] Weigh another approximately and accurately 90 mg each of 25HC3S (Lot #D and Lot #B, micronized, one pass) into 3 separate 10 mL vials with 3 mL of Vehicle PEG 3350. The vials were placed in a flat bed shaker at 200 rpm for 45 minutes (Mixing Method 4). […] A second set of samples was prepared likewise from the same 3 vials except using 1 mL BD syringe attached to a 27G½″ needle. The homogeneity was determined (Study #19).

[5] = Solubility of 25HC3S in aqueous solutions, organic solvents or oils; type: physicochemical; conditions: various aqueous solutions and FDA approved organic solvents or oils
From the text: The HPLC technique involved reverse phase HPLC for measuring the concentration of 25HC3 S in the solubility samples.

[6] = Stress study of suspension formulation with hydrogen peroxide; type: physicochemical; conditions: stress study of 25HC3S suspension formulation with hydrogen peroxide
From the text: L-Methionine was initially added as an antioxidant. […] Therefore, L-Methionine was removed from the preferred suspension formulation. 25HC3S in Vehicle PEG 3350 (without L-Methionine) was used for further syringeability study (Studies #12 and 13).

[7] = 10 mg/kg daily oral gavage 28 days

C[C@H](CCCC(C)(C)O)[C@H]1CC[C@H]2[C@@H]3CC=C4C[C@@H](OS(=O)(=O)[O-])CC[C@]4(C)[C@H]3CC[C@]12C.[Na+] [Formulation 25HC3S, 5-cholesten-3, 25-diol, 3-sulfate]
H&E-stained liver sections [1, 7]: No obvious changes
percent area of fibrosis [1, 7]: no significant difference
percent area of fibrosis (Sirius red-positive area) ([1]; 50 mg/kg daily oral gavage 28 days, p=0.0061): significantly decreased
NAS (NAFLD activity score) ([1]; 50 mg/kg daily oral gavage 28 days, p=0.0088): significant reduction
clinical signs [2]: no observable clinical signs
mean time to maximum plasma drug concentration ([2]; PEG 3350 suspension 25 mg/mL): 23.2 h
mean concentration at 32 h ([2]; plasma): 157.6 ng/mL
syringeability ([3]; 25 mg/mL in Vehicle PEG 3350 (without L-Methionine), flat bed shaker 200 rpm up to 45 minutes (Study #13)): good syringeability
syringeability ([3]; final suspension formulation: 25 mg/mL in 3% PEG 3350, 0.3% Tween 80, 0.75% NaCl, 10 mM phosphate buffer pH 7.4): good syringeability
osmolality ([4]; final improved formulation 25 mg/mL (Study #18)): 321 mmol/kg
osmolality ([4]; suspension 25 mg/mL in Vehicle PEG 3350 without L-Methionine, 0.75% NaCl, average of 6 measurements): 321 mmol/kg
solubility [5]: low solubility
oxidative degradation [6]: oxidative degradation did not occur
